According to patent US20240325369A1 (priority 2021, published 2024):

Procedure: Efficacy objectives were evaluated for subjects meeting the biomarker selection criteria described in the protocol. All subjects were monitored for safety during the study period, and up to 30 days after the last dose of study drug. Treatment continued until disease progression, unacceptable toxicity, death, or termination of the study by the sponsor.
Serum PSA, CTCs, survival status, SSEs were also collected. PROs included the BPI-SF, FACT-P, and EQ-5D-5L questionnaires. Safety assessments included recording of AEs, physical examinations, vital signs, ECGs, and ECOG performance status. Clinical laboratory testing included hematology, blood chemistry, and liver function parameters. Blood samples were also taken for pharmacokinetic assessments and biomarker analysis. Archival or recently collected tumor tissue samples were obtained from consenting subjects for biomarker identification.
All AEs reported on or after the date of first dose until 30 days (inclusive) after the last dose of study drug were considered treatment-emergent and were summarized. […] In addition. AE incidence rates were also summarized by severity and relationship to study drug. Treatment-related AEs were those judged by the investigator to beat least possibly related to the study drug. […] Deaths that occurred within 30 days after the last dose of study drug were defined as on-study deaths. No inferential statistical analyses were performed in analyzing the safety data.

[1] = safety population (289 subjects)
[2] = safety population (289 subjects), 300 mg once daily
[3] = safety population (289 subjects), data cutoff 26 Jan. 2021
[4] = safety population, 300 mg once daily

NC(=O)c1cccc2cn(-c3ccc([C@@H]4CCCNC4)cc3)nc12 [Niraparib, 2-[4-[(3S)-piperidin-3-yl]phenyl]-2H-indazole-7-carboxamide]
Treatment discontinuation because of adverse events (reason for discontinuation) (289 enrolled subjects, clinical data cutoff 26 Jan. 2021): 14%
Safety profile (heavily pre-treated prostate cancer population): manageable
Deaths due to treatment-emergent AEs, % of subjects [1]: 5.5%
Deaths due to treatment-emergent AEs, number of subjects [1]: 16
Deaths within 30 days of the last dose due to progressive disease, % of subjects [1]: 6%
Deaths within 30 days of the last dose due to progressive disease, number of subjects [1]: 17
AEs leading to treatment discontinuation, % of subjects [2]: 22.8%
Adverse event of clinical interest (all grades): anemia [2]: 54.0%
Adverse event of clinical interest (all grades): febrile neutropenia [2]: 1.0%
Adverse event of clinical interest (all grades): neutropenia [2]: 19.4%
Adverse event of clinical interest (all grades): thrombocytopenia [2]: 34.3%
Grade 3 or 4 AE: anemia [2]: 32.9%
Grade 3 or 4 AE: fatigue [2]: 6.6%
Grade 3 or 4 AE: nausea [2]: 5.2%
Grade 3 or 4 AE: neutropenia [2]: 9.7%
Grade 3 or 4 AE: thrombocytopenia [2]: 16.3%
Grade 3 or 4 AEs, % of subjects [2]: 75.1%
Grade 4 AE: thrombocytopenia, % of subjects [2]: 8.0%
Grade 4 AE: thrombocytopenia, number of subjects [2]: 23
Subjects reporting SAEs [2]: 46.4%
Subjects who experienced at least 1 AE [2]: 99.7%
Subjects who reported a related AE [2]: 90%
Deaths within 30 days of the last dose of study drug, % of subjects [3]: 9%
Deaths within 30 days of the last dose of study drug, number of subjects [3]: 26
Grade 3 or 4 clinical chemistry value: hyperkalemia [4]: 2.5%
Grade 3 or 4 clinical chemistry value: hyponatremia [4]: 3.2%
Grade 3 or 4 clinical chemistry value: increased GGT [4]: 5.0%
Grade 3 or 4 clinical chemistry value: increased alkaline phosphatase [4]: 2.5%
Grade 3 or 4 hematology value: anemia [4]: 17.0%
Grade 3 or 4 hematology value: decreased lymphocyte count [4]: 18.4%
